Columns and labels:
[1] = tested on: human CD34+ (hCD34+) peripheral blood stem cells; test: In vivo trafficking of 111In-labeled human CD34+ stem cells (HSC) after glycoprotein infusion, gamma camera imaging; parameters: species or system NOD-SCID mice; conditions: for organ localization of infused hematopoietic (CD34+) stem cells, in words: cells preceded by infusion of the protein, jugular vein, immunodeficient mice
Description: Intravenous cannulas were placed into the external jugular vein of NOD-SCID mice under anesthesia (Institutional Animal Care and Use Committee protocol #AM87046-07) to enable the efficient delivery of ^111In-labeled stem cells i.v. Tylenol elixir was administered by mouth after recovery from anesthesia. Briefly radiolabeled CD34+ cells were taken up in 100-250 ul of 5% human plasma albumin in saline and injected into the cannula and then flushed with 50 ul of the albumin-saline. The mice were imaged by nuclear medicine.
Mice: NOD-SCID, female mice (Nonobese diabetic/LtSz-scid/scid) were obtained from the Jackson Laboratory, Bar Harbor, Me. at 1-2 months of age. These animals were maintained in microisolator cages in a special isolator room. The air was HEPA filtered, and the animals were changed in a laminar flow hood within the facility. All food, bedding, and water was sterilized. […] See, e.g. Hogan, et al., Biology of Blood & Marrow Transplantation 3:236-246 (1997); Noort, et al., Bone Marrow Transplantation 22 Suppl 1:S58-60 (1998).
(§1) ^111Indium Oxine Labeling Procedure: ^111In-oxine labeling of adult human CD34+ or mesenchymal stem cells (hMSCs) was performed using a modification of the Amersham Healthcare Procedure for labeling autologous leukocytes.
(§2) Imaging procedures: Nuclear Medicine. NOD-SCID mice were anesthetized using rodent anesthesia cocktail. Once anesthetized, the mice were placed on a foam hemi-cylindrical mouse positioning device (MPD) and covered with a tube sock. The MPD allows better visual separation of the lungs and liver as compared to placing the mouse on a flat surface. The foam on which the mouse was placed, and the tube sock covering maintained a comfortable temperature permitting longer imaging without additional anesthesia. The MPD was placed on a narrow table between the dual heads of a Siemens E.Cam Gamma Camera and imaged statically or dynamically in 2-D or SPECT. ^57Co-Spot Marker is used to mark anatomic positions (nose, tail, cannula, etc.). The data was analyzed using a Siemens ICON system for regions of interest or percent of injected dose (e.g. liver, spleen, heart).
(§3) Gamma camera imaging using a Siemens E. Cam dual head gamma camera monitored the in vivo trafficking patterns of all human stem cells described in the following examples. Mice were placed on a Mouse Positioning Device (MPD) and placed between the detectors on the imaging platform.
5.75×10^6 111In-labeled human CD34+ (hCD34+) peripheral blood stem cells were administered intravenously (i.v.) via an external jugular vein cannula to 2 month old, NOD-SCID, female mice (Non-obese diabetic/LtSz-scid/scid) obtained from the Jackson Laboratory, Bar Harbor, Me. The radiolabeled CD34+ stem cells were administered after pretreatment of the mouse with 3.3 mg of asialoorosomucoid (ASO) i.v. The in vivo trafficking patterns were followed by gamma camera imaging using a Siemens E.Cam dual head gamma camera from immediately after injection up to 36 hr postinfusion. Human CD34+ were isolated from apheresis stem cell collection products derived from deceased cancer patients. They were purified to 95-99% purity using antibody conjugated to CD34 conjugated to magnetics beads (MACS) separation columns; Miltenyi Biotec, Auburn, Calif. and cryopreserved.
5.75×10^6 111In-labeled human CD34+ (hCD34+) peripheral blood stem cells were administered intravenously (i.v.) via an external jugular vein cannula to 2 month old, NOD-SCID, female mice (Non-obese diabetic/LtSz-scid/scid) obtained from the Jackson Laboratory, Bar Harbor, Me. The radiolabeled CD34+ stem cells were administered after pretreatment of the mouse with 5.5 mg of orosomucoid (O) i.v.
The preparation and procedures set forth in Example I were repeated. […]

[2] = tested on: human mesenchymal stem cells (MSC); test: In vivo trafficking of 111In-labeled human mesenchymal stem cells (MSC) after glycoprotein infusion, gamma camera imaging; parameters: species or system NOD-SCID mice; conditions: for % Infused Cells in Liver/Spleen: 0.56×10^6 MSC preceded by 4.3 mg ASO followed by 5.5 mg orosomucoid i.v.
Description: Human mesenchymal stem cells (hMSCs; PT-2501) obtained through a FDA monitored paid bone marrow donor program were purchased from Poietics Technologies, BioWhittaker (Walkerville, Md.). The cells were thawed according to manufacturer recommendations, resuspended, and radiolabeled in Mesenchymal Stem Cell Basal Medium (MSCBM).
as §1, §2, §3
MSC were obtained from BioWhittaker, (Poietics Division, cryopreserved PT-2501 >750,000 cells per ampoule) and labeled with ^111In as in previous examples, except that the MSC were labeled, washed, and injected in Basal Stem Cell Medium (Poietics) containing 5% human serum albumin (HSA). 0.56×10^6 111In labeled, human mesenchymal stem cells (MSC) were administered via an implanted Da Vinci Microport Vascular System cannula in the external jugular vein of a two-month old, female NOD-SCID mouse in 0.21 ml of basal stem cell medium containing 5% human serum albumin (HSA). Immediately prior to administration of MSC, 11.0 mg of orosomucoid was administered i.v. in 0.2 ml.
0.56×10^6 “In-labeled, MSC were administered i.v. in 0.21 ml of basal stem cell medium containing 5% human serum albumin (HSA). Prior to administration of MSC, 0.1 ml containing 4.3 mg of ASO, followed by 0.1 ml containing 5.5 mg orosomucoid were administered i.v. The ASO, orosomucoid and MSC were administered via an implanted Da Vinci Microport Vascular system cannula in the external jugular vein of a two-month old, female NOD-SCID mouse.

[3] = tested on: HEPG2 (ASGPR+); test: Adherence of NK/LAK activity to HEPG2 monolayers at 23° C; type: cell-based, human
Description: (§4) This experiment is the same as above, except that the adherence to monolayers was performed at 23° C. and not 4° C., for 2 hours. Two monolayers were used: HEPG2, an ASGPR+ cell line, and CAKI-2 (human renal cell carcinoma), an ASGPR− cell line. The effector cell populations that were used were: an untreated 3-day old LAK preparation (LAK) and the same population treated with Vibrio cholera neuraminidase (LAK/NS) (30 mU/1×10^7 cells/200 μl). The neuraminidase-treated population was the asialopositive lymphocyte control. All cell populations regardless of treatment were greater than 90% viable at the time of assay. Each type of effector population was incubated with media alone, 200 μg/ml ASF or F, as controls. All effectors were assayed on RAJI (LAK-sensitive target; NK-insensitive target) or K562 (NK/LAK-sensitive target); the E:T ratios and the graphic presentation are the same above.
(§5) Five-day LAK preparations (20 U/ml; 1 Dupont unit=44.5 BRMP units) grown in AIM-V (Gibco) were treated (according to the protocols in B. 1.2.3 & 1.2.4) with 3 OmU Vibric Cholera neuramindase, 0.48 mU 2,3-or 10 mu 2,6-silalyltransferase per 107 cells. Some of the effectors were incubated in media, 10% PBS in RPMJ 1640 at 23° C. for 2 hours. 2×107 effectors from the untreated LALK, neuramithdase-treated LAK, LAK treated with 2,3 or 2,6 were suspended in 15 ml media and placed onto either HEPG2 (ASGPR+) or CAKI-2 (ASGPR−) monolayers at 23° C. for 2 hours. The flasks were rocked every 15 minutes. The nonadherent cells from these monolayers were decanted and assayed against K562 and RAJI, in addition to the unadhered controls. The E:T ratios used were 40, 20, 10, and 5 to 1.

[4] = tested on: K562 (NK/LAK-sensitive target); test: Cytotoxic capacity of IL-2 activated NK effectors in 51Cr-release assay on K562; type: cell-based, human
Description: as §4, §5

[5] = tested on: RAJI (LAK-sensitive target; NK-insensitive target); test: Cytotoxic capacity of LAK effectors in 51Cr-release assay on RAJI; type: cell-based, human; conditions: for LAK activity (killing of RAJI) after enzyme treatment of effector cell surface: enzyme-treated LAK cells
Description: Control cells (no IL-2 treatment) or LAK cells (IL-2-treated human peripheral blood lymphocytes cultured 10U IL-2/ml for 3 days) were adhered to a monolayer of HEP G2 cells for 2 hours at 4° C. The monolayer was pretreated either with asialofetuin (ASF, 200 μg/ml) in media or with fetuin (F, control, 200 μg/ml)) in media. After the Control or LAK cells had been incubated on the monolayer, these cells were then decanted, washed, and tested for cytotoxic capacity in a ^51Cr-release assay against the NK-resistant target, Raji.
as §4, §5

[6] = tested on: CAKI-2 (ASGPR−); test: Adherence of NK/LAK activity to CAKI-2 monolayers at 23° C; type: cell-based, human
Description: as §4, §5

[7] = tested on: Caki-2 Targets; test: 51Cr-release assay of LAK effectors against CAKI-2 with agent added; type: cell-based, human; conditions: for % 51Chromium Release from Caki-2 Targets: agent 250 μg per well, 5-day LAK, 4-hour incubation
From the text: A working hypothesis is that LAK/NK cells bind to HEPG2 via at least two receptors or recognition structures: 1) the ASGPR, which binds an asialodeterminant on the LAK/NK population and 2) the “LAK” or “NK” recognition structure for a target epitope. The first should be inhibitable by ASF; the second should not be. Binding to CAKI-2 (ASGPR−) should not be inhibited by ASF and is due to a LAK or NK recognition structure binding to the target epitope. This can be further supported by data derived from experiments (see below) in which 250 μg/well of ASF or F were added to the ^51Cr-release assay of LAK effectors against the labeled target CAKI-2.
(% SPECIFIC RELEASE was determined from quadruplicates whose raw counts per minute differed by less than 10 percent; the assay was a standard 4-hour incubation.)

## asialoorosomucoid [ASO]
[1]; 5.75×10^6 HSC after 3.3 mg ASO i.v., early postinfusion images
  migration of CD34+ cells to the liver and spleen, in words: did not migrate to the liver and spleen early
[1]
  organ localization of infused hematopoietic (CD34+) stem cells, in words: migrated immediately to the heart
[1]; listed as asialoorosomucoid
  organ localization of infused hematopoietic (CD34+) stem cells, in words: predominantly localize in the heart
[2]; 0 hr
  % Infused Cells in Liver/Spleen: 63 ± 5% at 0 hr
[2]; 1 hr
  % Infused Cells in Liver/Spleen: 57 ± 7% at 1 hr
[2]; cells preceded by infusion of the protein, jugular vein, immunodeficient mice
  organ localization of infused mesenchymal stem cells, in words: localize in the liver

## Neuraminidase: Vibrio cholera neuraminidase used to treat LAK cells and generate cell surface asialodeterminants
[3]; 23° C for 2 hours
  adherence of LAK activity to HEPG2 (assayed on RAJI) after cell surface modification: did not
[4]; enzyme-treated LAK cells
  IL-2 activated NK (killing K562 targets) after enzyme treatment of effector cell surface: does not enhance
[5]
  LAK activity (killing of RAJI) after enzyme treatment of effector cell surface: enhances
[5]; listed as neuraminidase
  LAK activity (killing of RAJI) after enzyme treatment of effector cell surface: significantly enhanced
[6]; 5-day LAK, 23° C for 2 hours
  adherence to CAKI-2 of IL-2 activated NK activity (assayed on K562) after cell surface modification: promotes adherence

## fetuin [reference compound]
[3]; 23° C, 200 μg/ml
  inhibition of adherence to HEPG2 of LAK activity (assayed on RAJI): could not be inhibited
[3]; 23° C, 200 μg/ml, assayed on RAJI
  inhibition of adherence of LAK activity of the neuraminidase-treated population to HEPG2: not
[3]; 23° C, with or without neuraminidase treatment, 200 μg/ml
  inhibition of adherence to HEPG2 of IL-2 activated NK (assayed on K562): not
[7]; E:T 5:1
  % 51Chromium Release from Caki-2 Targets: 16%
[7]; E:T 10:1
  % 51Chromium Release from Caki-2 Targets: 27%
[7]; E:T 20:1
  % 51Chromium Release from Caki-2 Targets: 42%
[7]; E:T 40:1
  % 51Chromium Release from Caki-2 Targets: 58%
[7]; preincubation of targets and addition to the assay at 250 μg per well
  blocking of LAK killing of the tumor target CAKI-2, in words: does not block
[4]; 200 μg/ml, 23° C
  ability of effectors (LAK or LAK/NS) to kill K562 after preincubation with the protein: does not affect
[5]; 200 μg/ml for 2 h at 40C, no monolayer
  activity of LAK or Control preparations incubated with the protein alone versus untreated LAK: identical activity
[5]; 200 μg/ml, 23° C
  ability of effectors (LAK or LAK/NS) to kill RAJI after preincubation with the protein: does not affect
[6]; 23° C, 200 μg/ml
  inhibition of adherence to CAKI-2 of IL-2 activated NK or LAK activity: could not be inhibited

Reference: patent publication US20070110734A9, “Methods and compositions using cellular asialodeterminants and glycoconjugates for targeting cells to tissues and organs” (Department of Veterans Affairs, Rehabilitation R&D Service, priority 2002, published 2007)
